Measured values reported in patent publication US6723710B2, “Compositions for inhibiting arginase activity” (The Trustees of the University of Pennsylvania, priority 1997, dated 2004).
Several values for one entry are separate records, joined by “and”; a condition that tells them apart may be missing. Identical values can stand only once. Entries after “also recorded” stand apart in the source; their conditions may differ. Like-named read-outs stand apart in the source and are kept apart here. Each block holds one molecule with its values, some of them ahead of it.

What was measured:
[1] = system: internal anal sphincter (IAS) smooth muscle; experiment: NANC nerve-mediated relaxation of IAS smooth muscle strips by electrical field stimulation; set-up: species or system opossum (Didelphis virginiana); settings: for reversal of L-NNA-suppressed IAS relaxation: with L-NNA, L-HO-Arg and ABHA 3×10^−4 molar; for decrease in IAS tension after L-HO-Arg: 3×10^−4 molar
Text: The entire anal canal was isolated carefully by dissection and transferred to a dissecting tray containing oxygenated (95% O2 plus 5% CO2) Krebs' solution. The composition of the Krebs' solution was as follows (in millimolar): NaCl, 118.07; KCl 4.69; […] MgSO4, 1.16; […] NaHCO3, 25 and glucose (Pufahl et al., 1995, Biochemistry 34:1930-1941; […] et al., 1993, Biochem. Biophys. Res. Commun. 196:1558-1565). The anal canal was cleaned of extraneous connective tissue and blood vessels. Following this, the anal canal was opened by making an incision along the longitudinal axis, and was pinned flat with the mucosal side facing up. The mucosa and submucosa were removed by sharp dissection. Circular smooth muscle strips were obtained from the whole circumference of the anal canal and divided into two equal strips (about 1×8 millimeters). Both ends of the muscle strips were secured with silk sutures (4-0: Ethicon Inc., Sommerville, N.J.) and used for the measurement of isometric tension. […] One end of each muscle strip was fixed to the bottom of the muscle bath with a tissue holder and the other end was attached to an isometric force transducer (model FT03; Grass Instruments Co., Quincy, Mass.) in order to measure isometric tension. Smooth muscle tension was recorded using a […] recorder (model […]; Beckman Instruments, Schiller Park, Ill.). […] J. Physiol. 255:[…]-[…]). Only those smooth muscle strips that developed spontaneous and steady tension and relaxed in response to electrical field stimulation (EFS) were used. EFS was delivered, via a pair of platinum wires, from a Grass stimulator (Model S88; Grass Instruments Co., Quincy, Mass.) connected in series to a Med-Lab […] (Med-Lab Instruments, Loveland, Colo.). […] These parameters of EFS are known to cause relaxation of IAS smooth muscle by selective activation of NANC myenteric neurons. Neurally-mediated relaxation of IAS smooth muscle strips was quantified in response to different frequencies of EFS. […] To determine the influence of arginase on NANC nerve-mediated relaxation of IAS, the effects of different doses of arginase on relaxation were first determined. […] The effectiveness of arginase inhibitors (L-OH-Arg and ABHA) on arginase-induced attenuation of EFS-induced IAS relaxation was then tested. Optimal doses of arginase and L-OH-Arg in IAS have been reported ([…] and […]. Pharmacol. Exp. Ther. 282:378-384). In order to determine the selectivity of arginase inhibitors in IAS, their effects on IAS relaxation suppressed by the NO synthase inhibitor L-NNA ([…]) were tested. […] To examine the physiological relevance of arginase inhibitors in IAS relaxation, the influence of selected concentrations of arginase inhibitors on EFS-induced IAS relaxation was examined. […] Each smooth muscle strip served as its own control. […] The results are expressed as means±standard error.

arginase [2] = target: T1, arginase (Rattus norvegicus, UniProt P07824); settings: cited from earlier work
T1 sequence (P07824 1-323): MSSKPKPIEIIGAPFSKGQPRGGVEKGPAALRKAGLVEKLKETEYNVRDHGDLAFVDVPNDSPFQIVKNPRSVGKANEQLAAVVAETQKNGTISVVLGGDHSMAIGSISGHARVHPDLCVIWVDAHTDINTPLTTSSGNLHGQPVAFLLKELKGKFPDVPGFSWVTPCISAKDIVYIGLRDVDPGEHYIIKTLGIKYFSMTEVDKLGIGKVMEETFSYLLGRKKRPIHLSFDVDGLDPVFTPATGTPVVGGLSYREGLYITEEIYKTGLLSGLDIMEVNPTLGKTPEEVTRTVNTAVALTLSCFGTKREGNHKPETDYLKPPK

arginase [3] = settings: read-out: Ki previously reported; cited from earlier work
rectum arginase activity = experiment: arginase activity in rectum homogenate; type: biochemical, opossum; settings: rectum; read-out: IC50 for inhibition of arginase activity, rectum homogenate
Text: (§1) Tissue samples of the opossum internal anal sphincter muscle (IAS), adjoining rectal tissue, liver, and brain were homogenized using an ULTRATURRAX™ tissue homogenizer (Tekamr, Cincinnati, Ohio) in a solution comprising 10 millimolar Tris-HCl, 150 millimolar KCl, and 25 millimolar MnCl2, at pH 7.4. The homogenates were dialyzed overnight against the same solution. Dialyzed homogenates were centrifuged to remove insoluble material and concentrated with Amicon CENTRICON™ 30 microconcentrators to yield stock protein preparations having protein concentrations of 2.4 milligrams per milliliter for IAS smooth muscle, 3.6 milligrams per milliliter for rectal smooth muscle, 3 milligrams per milliliter for brain, and 17.5 milligrams per milliliter for liver. Protein concentrations were estimated with the Pierce Coomassie Protein Reagent kit using bovine serum albumin as a standard.
(§2) Arginase activity in tissue homogenates was evaluated using the radioactive L-[guanidino^14C]arginine assay of Rüegg and Russell (1980, Anal. Biochem. 102:206-212). Assays were performed using a solution comprising 100 millimolar CHES-NaOH and 0.1 millimolar MnCl2 at pH 9.0. The reactions were initiated by addition of 5 microliters of tissue homogenate to 45 microliters of reaction mixture that contained the CHES buffer, the appropriate concentration of arginine (0.5 to 5 millimolar) and about 5.0×10^4 counts per minute of L-[guanidino-^14C]arginine. IAS, rectal muscle, and brain homogenates were incubated with the assay mixture at room temperature for one hour, and the liver sample was incubated for 5 minutes. The reactions were stopped by addition of 200 microliters of a stop solution containing 0.25 molar acetic acid, 7 molar urea, and 10 millimolar arginase at pH 4.5. Arginase has essentially no activity at the low pH of the stop solution. [^14C] Urea was separated from non-reacted L-[guanidino-^14C]arginine by treatment with 200 μl of 1:1 v/v slurry of DOWEX™ 50W-X8 in water, and quantitated by adding 200 microliters of the supernatant from the DOWEX™ treatment to 3 milliliters of LIQUISCENT™ (National Diagnostics) for liquid scintillation counting in a Beckman LS 5000CE counter. The data were analyzed using double-reciprocal plots of the initial velocity measurements; standard errors were determined by regression analysis.
(§3) Assays in the presence of the inhibitors N^ω-hydroxy-L-arginine (1 to 100 micromolar) and ABHA (0.05 to 100 micromolar) were performed as described above. The amino acid D-ornithine served as a control in these experiments, since this amino acid, unlike L-omithine, is not an inhibitor of arginase.

IAS arginase activity = experiment: arginase activity in IAS homogenate; type: biochemical, opossum; settings: IAS; read-out: IC50 for inhibition of arginase activity, IAS homogenate
Text: as §1
as §2, with “The reactions were stopped by addition of 200 microliters of a stop solution containing 0.25 molar acetic acid, 7 molar urea, and 10 millimolar arginase at pH 4.5. Arginase has essentially no activity at the low pH of the stop solution. [^14C]” left out, “analysis. […]” for “analysis.”

brain arginase activity = experiment: arginase activity in brain homogenate; type: biochemical, opossum; settings: brain; read-out: IC50 for inhibition of arginase activity, brain homogenate
Text: as §1
as §2, with “The reactions were stopped by addition of 200 microliters of a stop solution containing 0.25 molar acetic acid, 7 molar urea, and 10 millimolar arginase at pH 4.5. Arginase has essentially no activity at the low pH of the stop solution. [^14C]” left out, “analysis. […]” for “analysis.”

rat liver arginase [4] = target: T2, rat liver arginase (Rattus norvegicus, UniProt P07824); experiment: [14C-guanidino]-arginine arginase activity assay (Example 2); type: biochemical; settings: 100 millimolar CHES, pH 9.0, 1 millimolar arginine; read-out: IC50 for inhibition of arginase
T2 sequence (P07824 1-323): T1 sequence (P07824 1-323)
Method: Arginase activity was assessed using the ^(14C-guanidino)-arginine assay of Rüegg et al. (1980, Anal. Biochem. 102:206-212), as described (Reczkowski et al., 1994, Arch. Biochem. Biophys. 312:31-37). […] […] et al., 1994, Biochem. Biophys. Res.

liver arginase activity = experiment: arginase activity in liver homogenate; type: biochemical, opossum; settings: for potency against liver arginase activity relative to non-hepatic tissues: liver versus IAS, rectum, brain
Text: as §1, §2, §3

rat liver arginase [5] = target: T2, rat liver arginase; experiment: continuous chromogenic arginase assay with substrate 1-nitro-3-guanidinobenzene (compound 18); type: biochemical; set-up: made in house; settings: for tnpseudo (moles of inhibitor/mole of arginase): 2 millimolar compound 18 as substrate, pseudo-turnover number, smaller = better inhibition
Method: The activity of wild-type arginase was monitored spectrophotometrically using a Pharmacia BIOTECH ULTROSPEC™ 2000. Assays were performed in a solution comprising 100 micromolar MnCl2 and 50 millimolar bicine-NaOH (pH 9.0). […] Eadie-Hofstee plots were used to analyze the data.

rat liver arginase [6] = target: T2, rat liver arginase; experiment: radioactive L-[guanidino-14C]arginine arginase assay (Example 3); type: biochemical; set-up: made in house
Method: Assays were performed in 100 micromolar MnCl2, 100 millimolar CHES-NaOH (pH 9.0). The reactions were initiated by addition of 5 microliters of a circa 1 unit per milliliter enzyme solution to 45 microliters of reaction mixture containing CHES buffer, 1.4 millimolar L-arginine, about 5.0×10^4 counts per minute of L-[guanidino- ^14C]arginine, and variable concentrations of the appropriate inhibitor. After a 5-15 minute reaction time, 200 microliters of a stop solution containing 7 molar urea, 10 millimolar L-arginine, and 0.25 molar acetic acid (pH 4.5) was added to the reaction (arginase has essentially no activity under these conditions). [^14C]-Urea was separated from non-reacted L-[guanidino-^14 C]arginine by treatment with 200 microliters of a 1:1 (vol/vol) slurry of DOWEX™ 50 W-X8 in water, and quantitated by adding 200 microliters of the supernatant from the DOWEX™ treatment to 3 milliliters of LIQUISCINT™ (National Diagnostics) for liquid scintillation counting in a Beckman LS5000CE counter.

arginase [7] = target: T1, arginase; experiment: isothermal titration calorimetry; type: binding; set-up: made in house
Method: All calorimetry experiments were conducted on a MCS isothermal calorimeter from MicroCal, Inc. (Northampton, Mass.). Arginase was exhaustively dialyzed against a solution comprising 100 micromolar MnCl2 and 50 millimolar bicine-NaOH (pH 8.5). […] Prior to the titration experiment, samples were de-gassed under vacuum for 5 minutes. […] The contents of the sample cell were titrated with 30-40 aliquots (2.5 microliters each) of inhibitor (an initial 1 microliters injection was made, but not used in data analysis). After each injection, the heat change was measured and converted to the corresponding enthalpy value. The reaction mixture was continuously stirred at 400 rotations per minute during titration. Control experiments were carried out by titrating the inhibitor into the buffer solution under identical experimental conditions. Data analysis was performed using ORIGIN™ software provided with the instrument. The calorimetric data are presented with the background titrations subtracted from the experimental data. The amount of heat produced per injection was calculated by integration of the area under each peak. The data were fit to the following equation, […]

SMILES: N=C(N)NCCC[C@H](N)C(=O)O [L-arginine]
- reversal of L-NNA-suppressed IAS relaxation [1]: significant and concentration-dependent reversal
- kcat reported (arginase [2]; as substrate): 15,000±1200 reciprocal minutes
- Km (arginase [2]; as substrate, read-out: KM reported): 1400 ± 300 µM

SMILES: N=C(NO)NCC[C@H](N)C(=O)O [N-hydroxy-nor-arginine]
- Ki (arginase [3]): 0.5 µM

- IC50 (rectum arginase activity): 42 µM
- IC50 (IAS arginase activity): 25 µM
- IC50 (brain arginase activity): 40 µM
- IC50 (rat liver arginase [4]): 80 µM
- potency against liver arginase activity relative to non-hepatic tissues (liver arginase activity; listed as L-HO-Arg): 10-20 fold
- potency against liver arginase activity relative to non-hepatic tissues (liver arginase activity; listed as N^107-hydroxy-L-arginine): about 10 fold
- IC50 (liver arginase activity; liver, read-out: IC50 for inhibition of arginase activity, liver homogenate): 2.4 µM
SMILES: N=C(NO)NCCC[C@H](N)C(=O)O [N-hydroxyarginine, N^ω-hydroxy-L-arginine]
- decrease in IAS tension after L-HO-Arg ([1]; 0.5 Hertz EFS): 57.4±4.9%
- decrease in IAS tension after L-HO-Arg ([1]; 1 Hertz EFS): 68.8±4.9%
- effect on arginase-suppressed EFS-induced IAS relaxation ([1]; exogenous arginase, L-HO-Arg 1×10^−4 molar): antagonized the effect of arginase; also recorded: reversal
- augmentation of NANC nerve-mediated IAS relaxation by EFS ([1]; lower frequencies of EFS, listed as L-HO-Arg): significant and concentration-dependent augmentation
- reversal of L-NNA-suppressed IAS relaxation [1]: dose-dependent and complete reversal; also recorded: completely reversed
- Ki (arginase [3]): 42 µM

SMILES: NC(CCCCC(N)C(=O)O)=NO (centres unmarked) [N-hydroxyindospicine]
- Ki (arginase [3]): 20 µM

SMILES: NCCCC[C@H](NO)C(=O)O [N-hydroxylysine]
- Ki (arginase [3]): 4 µM

SMILES: O[B-](O)(O)O [borate]
- Ki (arginase [2]; non-competitive inhibitor, read-out: KII): 260 µM
- Ki (arginase [2]; non-competitive inhibitor, read-out: KIS): 980 µM

- fold less potent than compounds 7 and 15 (from tnpseudo) (rat liver arginase [5]; substrate 18): about 400 fold
SMILES: N[C@@H](CCCB(O)O)C(=O)O [compound 12, 2(S)-amino-5-boronopentanoic acid]
- tnpseudo (moles of inhibitor/mole of arginase) (rat liver arginase [5]): 420 ± 30 moles of inhibitor/mole of arginase

SMILES: N[C@@H](CSCCB(O)O)C(=O)O [compound 15, S-(2-boronoethyl)-L-cysteine]
- Ki (rat liver arginase [6]): 0.7 µM
- tnpseudo (moles of inhibitor/mole of arginase) (rat liver arginase [5]): 1.00 ± 0.004 moles of inhibitor/mole of arginase
- Kd (arginase [7]): 2.22 µM
- association constant (Ka) (arginase [7]; pH 8.5, 25° C.): 4.50×10^5 inverse molar
- enthalpy change (ΔH) of binding (arginase [7]; pH 8.5, 25° C.): −12.75 kilocalories per mole
- stoichiometry (n), moles bound per mole of arginase monomer (arginase [7]; pH 8.5, 25° C.): 0.96 and 0.964

- Ki (rat liver arginase [5]; assay with substrate 18, assuming competitive inhibition): 420 µM
SMILES: N[C@@H](CSCC[Si](O)(O)O)C(=O)O [compound 16, S-(2-trihydroxysilylethyl)-L-cysteine]

- kcat for arginase-catalyzed hydrolysis (rat liver arginase [5]; as substrate, monomer 35 kilodaltons): 0.09±0.02 reciprocal minutes
SMILES: N=C(N)Nc1cccc([N+](=O)[O-])c1 [compound 18, 1-nitro-3-guanidinobenzene]

SMILES: NCCC[C@H](N)C(=O)O [ornithine]
- Ki (arginase [2]; read-out: Ki): 1000 µM
